The values that follow come from patent publication EP0203736A1, “Antiviral compounds” (THE WELLCOME FOUNDATION LIMITED, priority 1985, dated 1986).

This experiment relates to herpes simplex. The experiment in a line: In vivo potency against herpes simplex infection in intra-cerebrally infected mice (survival times, MRST). More on the design: species or system CD 1 mice. To be noted: for MRST: mean reciprocal survival time; for MRST / Survival Times / survivors: 50 mg/kg twice daily for 4.5 days; for MRST / Survival Times: recorded over 14 days; for Survival Times / survivors: 10 animals; for Survival Times: figures = number of animals that died (on the day in parentheses); for survivors: 14 days, 1 mouse died within 24 hours of infection. The protocol:
The compounds of Examples 1 and 2 were tested in vivo to determine their potency in vivo against herpes simplex infections. The compounds were tested in comparison with the 6-deoxy analogue of the compound of Example 1, namely 9-(3,4-dihydroxybutyI) guanine (DHBG). The following is description of the testing.
The compounds were tested in CD 1 mice infected with herpes simplex ICI cell culture stock having a titre of 1 x 10^5 plaque forming units (pfu)/ml and administered to the mice in a dose of 0.025ml by the intra-cerebral route.
The test compounds were prepared as aqueous suspensions or solutions, each compound being administered at a dose of 50 mg/kg in a volume of 0.1 ml, by either the oral or sub-cutaneous (s.c.) route, to a treatment group of animals. Each group contained 10 animals for each compound and for each route of administration.
Treatment of the animals commenced 2-3 hours after infection and continued twice daily for 4.5 days.
A group of 13 animals which were infected but untreated served as controls.
Survival times for the test animals were recorded over 14 days and expressed as mean reciprocol survival times (MRST).
The results shown in the following table were obtained in which the figures in the column headed "Survival Times" indicate the number of animals that died on the day indicated in parentheses.

As for `Nc1nc2c(ncn2CCC(O)CO)c(=O)[nH]1` (stereo not drawn) [DHBG, 9-(3,4-dihydroxybutyI) guanine, reference compound], under “oral”, the MRST is recorded as 0.18 and the “Survival Times” value is reported as 1(4.5), 3(5), 5(6), 1(7). Besides, where the note is “s.c.”, the MRST is on record as 0.155 and the “Survival Times” value is 1(5), 3(6), 5(7), 1(7.5).

As for `Nc1ncc2ncn(CCC(O)CO)c2n1` (stereo not drawn) [Example 1, 2-Amino-9-(3,4-dihydroxybutyl)-9H-purine], for the setting “oral”, the MRST came out at 0.154 and the “Survival Times” value was 1(5), 4(6), 3(7), 1(7.5), 1(9). Also, where the note is “s.c.”, the MRST was 0.160 and the “Survival Times” value was 7(6), 3(7).

For the compound `Nc1ncc2ncn(COCC(O)CO)c2n1` (stereo not drawn) [Example 2], under “oral”, the MRST amounted to 0.059; the survivors stood at 5; the “Survival Times” value was 1(6), 1(7), 1(8), 1(10.5). Under “s.c.”, the MRST stood at 0.054; the survivors stood at 5; the “Survival Times” value was 3(8), 1(9). Under “summary statement, particularly in comparison with DHBG”, the “antiviral effect in vivo against HSV” value is “potent antiviral effect”.
